Patent publication US20250059187A1, “COVALENTLY BINDING INHIBITORS OF G12S, G12D AND/OR G12E MUTANTS OF K-RAS GTPASE” (The Regents of the University of California, priority 2021, published 2025)

How the values were obtained:
Assay type in all cases: binding
[1] = target: T1, K-Ras G12D (Homo sapiens, UniProt P01116, G12D); experiment: Covalent modification of test protein after incubation with compound; details: 24-h incubation with 100 μM compound at 23° C. at pH 7.5
T1 construct: human K-Ras (G12D, aa 1-169); 6xHis tag + TEV cleavage site (N, cleaved yes); made in house; host or cells: E. coli BL21(DE3)

[2] = target: T2, wild type K-Ras (Homo sapiens, UniProt P01116); experiment: Covalent modification of recombinant wild-type K-Ras by whole-protein mass spectrometry; details: 23° C.; for % covalent modification of wild type K-Ras: 24-h incubation, 100 μM compound, pH 7.5
T2 construct: human K-Ras (wildtype, aa 1-169); 6xHis tag + TEV cleavage site (N, cleaved yes); made in house; host or cells: E. coli BL21(DE3)
Experimental: (§1) Test compounds were prepared as 100× stock solutions in DMSO. K-Ras proteins were diluted with SEC Buffer (20 mM HEPES 7.5, 150 mM NaCl, 1 mM MgCl2) to 400 nM or 1 μM. In a typical reaction, 0.5 μL 100× compound stock was mixed with 50 μL diluted K-Ras protein, and the resulting mixture was incubated for the desired amount of time. The extent of modification was assessed by electrospray mass spectrometry using a Waters Xevo G2-XS system equipped with an Acquity UPLC BEH C4 1.7 μm column. The mobile phase was a linear gradient of 5-95% acetonitrile/water+0.05% formic acid. For kinetic measurements, a 2× compound solution was first prepared in SEC Buffer, which was then mixed with 400 nM K-Ras(G12S) protein at 1:1 (v/v) ratio. Injection time stamps were used to calculate elapsed time.
as §1, with “K-Ras(G12D)” for “K-Ras(G12S)”

[3] = target: T3, K-Ras G12E (Homo sapiens, UniProt P01116, G12E); experiment: Covalent modification of test protein after incubation with compound; details: 24-h incubation with 100 μM compound at 23° C. at pH 7.5
T3 construct: human K-Ras (G12E, aa 1-169); 6xHis tag + TEV cleavage site (N, cleaved yes); made in house; host or cells: E. coli BL21(DE3)

[4] = target: T2, wild type K-Ras; experiment: as above; details: 24-h incubation with 100 μM compound at 23° C. at pH 7.5
[5] = target: K-Ras(G12S) (Homo sapiens, UniProt P01116, G12S); experiment: Covalent modification of recombinant K-Ras(G12S) by whole-protein mass spectrometry; design: human K-Ras (G12S, aa 1-169); 6xHis tag + TEV cleavage site (N, cleaved yes); made in house; host or cells: E. coli BL21(DE3); details: 23° C.; for % covalent modification of K-Ras G12S: 24-h incubation, 100 μM compound, pH 7.5
Experimental: as §1, with “The mobile phase was a linear gradient of 5-95% acetonitrile/water+0.05% formic acid.” left out
as §1, with “The mobile phase was a linear gradient of 5-95% acetonitrile/water+0.05% formic acid.” left out, “K-Ras(G12D)” for “K-Ras(G12S)”

SMILES	% covalent modification of K-Ras G12D [1]	% covalent modification of wild type K-Ras [2]	% covalent modification of K-Ras G12E [3]	% covalent modification of wild type K-Ras [4]	% covalent modification of K-Ras G12S [5]	covalent adducts with wild-type K-Ras protein ([2]; 10 μM compound, 4 μM protein)	covalent reaction with K-Ras(G12S)·GDP ([5]; 10 μM compound)
O=C1CC(C(=O)N2[C@@H]3CC[C@H]2CN(c2nc(OCC45CCCN4CCC5)nc4c(F)c(-c5cccc6cccc(Cl)c56)ncc24)C3)O1 (stereo partly shown) [Compound 14-036]	100%	22.0%	42.0%	22.0%	42.0%		
O=C1OCC12CCN(c1nc(OCC34CCCN3CCC4)nc3c(F)c(-c4cccc5cccc(Cl)c45)ncc13)CC2 [Compound 13-037]	0%	0%	0%	0%	42.5%		
O=C1O[C@@H]2CCN(c3ncnc4c(F)c(-c5ccccc5F)c(Cl)cc34)C[C@H]12 [Compound 04-005]	0%	0%	0%	0%	0%		
CN1CCC[C@@H]1COc1nc2c(c(N3CCC4(CC3)CNC4=O)n1)CCN(c1cccc3cccc(Cl)c13)C2 [Compound 12-064]	0%	0%	0%	0%	0%		
CN1CCC[C@@H]1COc1nc2c(c(N3CC[C@H]4OC(=O)[C@@]4(C)C3)n1)CCN(c1cccc3cccc(Cl)c13)C2 [Compound 12-044]	0%	0%	0%	0%	0%		
CN1CCC[C@H]1COc1nc2c(c(N3CCC4OC(=O)C4C3)n1)CCN(c1cccc3cccc(Cl)c13)C2 (stereo partly shown) [2′]	6.0%	0%	7.0%	0%	23.0%	neither of these compounds formed covalent adducts	did not yield any covalent adduct
Cc1ccc2[nH]ncc2c1-c1cc2ncnc(N3CC(C(=O)N[C@@H]4COC4=O)C3)c2cc1Cl [Compound 03-100]	17.7%		18.5%	22.6%			
CN1CCC[C@@H]1COc1nc2c(c(N3CCC4(CC3)COC4=O)n1)CCN(c1cccc3cccc(Cl)c13)C2 [Compound 13-005]	75.7%	73.7%	72.6%	73.7%	72.1%		
O=C1C[C@H](C(=O)N2[C@@H]3CC[C@H]2CN(c2nc(OCC45CCCN4CCC5)nc4c(F)c(-c5cccc6cccc(Cl)c56)ncc24)C3)O1 [(R)-2]	100%			0%			
CC(C)[C@@H]1C(=O)O[C@H]1C(=O)N1[C@@H]2CC[C@H]1CN(c1nc(OCC34CCCN3CCC4)nc3c(F)c(-c4cccc5cccc(Cl)c45)ncc13)C2 [(2R, 3S)-4]	100%			0%			
CC1(c2cc(NCC(=O)N[C@@H]3COC3=O)c(O)cc2Cl)CC1 [Compound 06-095]	0%			0%			
CC1(c2cc(NCC(=O)N3CC[C@@]4(C)C(=O)O[C@H]4C3)c(O)cc2Cl)CC1 [Compound 08-044]	0%	0%	0%	0%			
Cc1ccc2[nH]ncc2c1-c1cc2ncnc(N3CCC(C(=O)N[C@@H]4COC4=O)CC3)c2cc1Cl [Compound 04-023]	2.7%		2.1%	1.5%			
C#Cc1c(F)ccc2cc(O)cc(-c3ncc4c(N5C[C@H]6CC[C@@H](C5)N6C(=O)[C@@H]5OC(=O)[C@H]5C(C)C)nc(OC[C@@]56CCCN5C[C@H](F)C6)nc4c3F)c12 [(2R, 3S)-6]	100%		0%	0%			
CC1(c2cc(NCC(=O)N[C@H]3COC3=O)c(O)cc2Cl)CC1 [Compound 06-094]	0%			0%			
C[C@@H]1C(=O)O[C@H]1C(=O)N1[C@@H]2CC[C@H]1CN(c1nc(OCC34CCCN3CCC4)nc3c(F)c(-c4cccc5cccc(Cl)c45)ncc13)C2 [(2R, 3S)-3]	100%			0%			
CC1(c2cc(NCC(=O)N3CC[C@H]4OC(=O)[C@@]4(C)C3)c(O)cc2Cl)CC1 [Compound 08-043]	0%	0%	0%	0%			
Cc1ccc2[nH]ncc2c1-c1cc2ncnc(N3CC(C(=O)N[C@H]4COC4=O)C3)c2cc1Cl [Compound 03-099]	23.4%		16.8%	18.6%			
C#Cc1cccc2cccc(-c3ncc4c(N5C[C@H]6CC[C@@H](C5)N6C(=O)[C@@H]5OC(=O)[C@H]5C(C)C)nc(OCC56CCCN5CCC6)nc4c3F)c12 [(2R, 3S)-5]	100%		0%	0%			
Cc1ccc2[nH]ncc2c1-c1cc2ncnc(N3CCC(C(=O)N[C@H]4COC4=O)CC3)c2cc1Cl [Compound 04-022]	4.1%		2.1%	4.6%			
